Here are results for 36 molecules from US7250410B2, “Cyclic nucleotide phosphodiesterase inhibitors, preparation and uses thereof” (Via Pharmaceuticals, Inc., priority 2001, dated 2007).

“And” between values parts separate entries of the source, which are not always exact repeats. Identical values can stand only once.

The target of one experiment is PDE4. In words: Inhibition of PDE4, radioenzymatic phosphodiesterase assay. To be noted: Table 1, formula (III); 1 μM cyclic AMP. The class given is biochemical, bovine. Here is the method: A 3 g segment of bovine aortic media cut into pieces with scissors was homogenized with an ultra-turrax then a potter glass/glass homogenizer in 7 volumes by weight of buffer A containing a protease inhibitor cocktail (20 mM Tris-HCl, 0.25 M saccharose, 2 mM magnesium acetate, 1 mM dithiothreitol, 5 mM EGTA, 2000 U/ml aprotinin, 10 mg/l leupeptin and 10 mg/l soya trypsic inhibitor). The homogenizate was centrifuged at 105,000 g for 1 hour. […] The column was washed until there was no detectable absorption at 280 nm, then eluted with a linear gradient of NaCl (0–0.5 M) in buffer B. 3-ml fractions were collected and enzyme activity was determined under the conditions described hereinafter to localize the different enzymes PDE1, PDE3, PDE4 and PDE5, which were aliquoted and frozen at −80° C.
The nucleoside formed was separated from the nucleotides by anion exchange chromatography. Nucleoside radioactivity was determined by liquid scintillation counting.
`COc1cc2c(cc1OC)C(c1ccc(-c3ccc(Cl)cc3)cc1)=NN(C)C(=O)C2` [IIIat, 1-[4-(4-chlorophenyl)phenyl]-7,8-dimethoxy-3-methyl-3,5-dihydro-4H-2,3-benzodiazepin-4-one] came in with a concentration for half-maximal inhibition (IC50) of 2.3 µM.

Staying with this experiment, now noted: Table 1, formula (III); compound at 10 μM.
For `COc1cc2c(cc1OC)C(c1ccccc1)=NN(Cc1ccccc1)C(=O)C2` [IIIac, 3-benzyl-7,8-dimethoxy-1-phenyl-3,5-dihydro-4H-2,3-benzodiazepin-4-one], the “PDE4 percentage inhibition at 10 μM” value is 33%.

Still in this experiment, the particulars now being: Table 2, formula (XXII); 1 μM cyclic AMP.
`COc1cc2c(cc1OC)C(c1cccc(Br)c1)=NCC(=O)N2` [XXIIak, 5-(3-bromophenyl)-7,8-dimethoxy-1,3-dihydro-2H-1,4-benzodiazepin-2-one] came in with a 50% inhibitory concentration (IC50) of 13 µM.
The same measure, in the same setting: the same measure for `COc1cc2c(cc1OC)C(c1ccccc1)=NC(c1ccccc1)C(=O)N2` (stereo not drawn) [XXIIaz, 7,8-dimethoxy-3,5-diphenyl-1,3-dihydro-2H-1,4-benzodiazepin-2-one]: 9.5 µM.

Still in this experiment, the particulars now being: Table 2, formula (XXII); compound at 10 μM.
`COc1cc2c(cc1OC)C(c1ccccc1)=N[C@@H](CCCCN)C(=O)N2` [XXIIaw, (S)-3-(4-aminobutyl)-7,8-dimethoxy-5-phenyl-1,3-dihydro-2H-1,4-benzodiazepin-2-one]: the “PDE4 percentage inhibition at 10 μM” value came to 4%.
Same read-out and setting: the same measure for `COc1ccc2c(c1)C(c1ccccc1)=NCC(=O)N2` [XXIIao, 7-methoxy-5-phenyl-1,3-dihydro-2H-1,4-benzodiazepin-2-one]: 11.5%; for `COc1cc2c(cc1OC)C(c1ccccc1)=NCC(=O)N2` [XXIIaa, 7,8-dimethoxy-5-phenyl-1,3-dihydro-2H-1,4-benzodiazepin-2-one]: 25.8%.
Same read-out and setting: the same measure for `COc1cc2c(cc1OC)C(c1ccccc1)=N[C@@H](CCCCNC(=N)N)C(=O)N2.O=C(O)C(F)(F)F.O=C(O)C(F)(F)F` [XXIIay, N-[4-(7,8-dimethoxy-2-oxo-5-phenyl-2,3-dihydro-1H-1,4-benzodiazepin-3-yl)butyl]guanidinium (S)-bis trifluoroacetate]: 19.6%.

The experiment is the same for the next values; noted with them: Table 3, formula (II); 1 μM cyclic AMP.
Take `CCN1C(=O)C(Cc2ccccc2Br)N=C(c2ccccc2)c2cc(OC)c(OC)cc21` (stereo not drawn) [IIcc, 3-(2-bromobenzyl)-1-ethyl-7,8-dimethoxy-5-phenyl-1,3-dihydro-2H-1,4-benzodiazepin-2-one]: the IC50 worked out at 4.97 µM.
Still for that read-out and setting: as for `CCN1C(=O)C(Cc2cccc(C#N)c2)N=C(c2ccccc2)c2cc(OC)c(OC)cc21` (stereo not drawn) [IIcp, 3-[(1-ethyl-7,8-dimethoxy-2-oxo-5-phenyl-2,3-dihydro-1H-1,4-benzodiazepin-3-yl)methyl]benzonitrile], the figure is 9.2 µM; as for `COc1cc2c(cc1OC)N(C)C(=O)CN=C2c1cc2ccccc2s1` [IIac, 5-(2-benzo[b]thienyl)-7,8-dimethoxy-1-methyl-1,3-dihydro-1,4-benzodiazepin-2-one], 2.3 µM; as for `CCOc1cc2c(cc1OC)C(c1ccccc1)=NC(Cc1ccccc1)C(=O)N2CC` (stereo not drawn) [IIbb, 3-benzyl-8-ethoxy-1-ethyl-7-methoxy-5-phenyl-1,3-dihydro-2H-1,4-benzodiazepin-2-one], 3.13 µM.
Take `CCN1C(=O)CN=C(c2ccc(C#CCOCc3ccccc3)cc2)c2cc(OC)c(OC)cc21` [IIbn, 5-{4-[3-(benzyloxy)prop-1-ynyl]phenyl}-1-ethyl-7,8-dimethoxy-1,3-dihydro-2H-1,4-benzodiazepin-2-one]: half-maximal inhibition (IC50) was put at 2.95 µM.
The same measure, in the same setting: the same measure for `COc1cc2c(cc1OC)N(C)C(=O)CN=C2c1cccs1` [IIak, 7,8-dimethoxy-1-methyl-5-(2-thienyl)-1,3-dihydro-1,4-benzodiazepin-2-one]: 16 µM; for `CCN1C(=O)C(Cc2cccc(Br)c2)N=C(c2ccccc2)c2cc(OC)c(OC)cc21` (stereo not drawn) [IIcj, 3-(3-bromobenzyl)-1-ethyl-7,8-dimethoxy-5-phenyl-1,3-dihydro-2H-1,4-benzodiazepin-2-one]: 3.76 µM.
On the same count and under the same terms, as for `CCN1C(=O)C(Cc2ccccc2C#N)N=C(c2ccccc2)c2cc(OC)c(OC)cc21` (stereo not drawn) [IIce, 3-(2-cyanobenzyl)-7,8-dimethoxy-1-ethyl-5-phenyl-1,3-dihydro-2H-1,4-benzodiazepin-2-one], the figure is 0.88 µM and 1.4 µM; as for `COc1cc2c(cc1OC)N(C)C(=O)CN=C2/C=C/c1ccccc1` [IIas, 7,8-dimethoxy-1-methyl-5-[(E)-2-phenylethenyl]-1,3-dihydro-2H-1,4-benzodiazepin-2-one], 8.4 µM.
Same read-out and setting: the same measure for `COc1ccc(C2=NCC(=O)N(C)c3cc(OC)c(OC)cc32)cc1` [IIaw, 7,8-dimethoxy-5-(4-methoxyphenyl)-1-methyl-1,3-dihydro-1,4-benzodiazepin-2-one]: 10 µM.
Turning to `CCOc1cc2c(cc1OC)C(c1ccccc1)=NC(Cc1cccc(C#N)c1)C(=O)N2C` (stereo not drawn) [IIdf, 3-[(8-ethoxy-7-methoxy-1-methyl-2-oxo-5-phenyl-2,3-dihydro-1H-1,4-benzodiazepin-3-yl)methyl]benzonitrile], 1.5 µM corresponded to half-maximal inhibition (IC50).
For the molecule `CCN1C(=O)C(Cc2ccccc2[N+](=O)[O-])N=C(c2ccccc2)c2cc(OC)c(OC)cc21` (stereo not drawn) [IIbh, 7,8-dimethoxy-1-ethyl-3-(2-nitrobenzyl)-5-phenyl-1,3-dihydro-2H-1,4-benzodiazepin-2-one], the IC50 was 2.4 µM.
Take `CCN1C(=O)C(Cc2ccccc2Cl)N=C(c2ccccc2)c2cc(OC)c(OC)cc21` (stereo not drawn) [IIcy, 3-(2-chlorobenzyl)-1-ethyl-7,8-dimethoxy-5-phenyl-1,3-dihydro-2H-1,4-benzodiazepin-2-one]: the concentration for half-maximal inhibition (IC50) is 2.8 µM.

The experiment is the same for the next values; noted with them: Table 3, formula (II); compound at 10 μM.
Consider `CCOC(=O)CC1N=C(c2ccccc2)c2cc(OC)c(OC)cc2N(CC)C1=O` (stereo not drawn) [IIbv, ethyl (1-ethyl-7,8-dimethoxy-2-oxo-5-phenyl-2,3-dihydro-1H-1,4-benzodiazepin-3-yl)acetate], for which the “PDE4 percentage inhibition at 10 μM” value worked out at 44.4%.
On the same count and under the same terms, as for `CCN1C(=O)C(Cc2cc(Br)cc(Br)c2)N=C(c2ccccc2)c2cc(OC)c(OC)cc21` (stereo not drawn) [IIbx, 3-(3,5-dibromobenzyl)-7,8-dimethoxy-1-ethyl-5-phenyl-1,3-dihydro-2H-1,4-benzodiazepin-2-one], the figure is 18%; as for `CCN1C(=O)CN=C(c2ccccc2)c2cc(O)c(O)cc21` [IIbk, 1-ethyl-7,8-dihydroxy-5-phenyl-1,3-dihydro-2H-1,4-benzodiazepin-2-one], 14.2%; as for `CCN1C(=O)C(Cc2ccc(Br)cc2)N=C(c2ccccc2)c2cc(OC)c(OC)cc21` (stereo not drawn) [IIcd, 3-(4-bromobenzyl)-1-ethyl-7,8-dimethoxy-5-phenyl-1,3-dihydro-2H-1,4-benzodiazepin-2-one], 20.1%.
Still for that read-out and setting: the same measure for `CCN1C(=O)C(CC#N)N=C(c2ccccc2)c2cc(OC)c(OC)cc21` (stereo not drawn) [IIcb, (1-ethyl-7,8-dimethoxy-2-oxo-5-phenyl-2,3-dihydro-1H-1,4-benzodiazepin-3-yl)acetonitrile]: 28.5%.
Same read-out and setting: the same measure for `CCOC(=O)CN1C(=O)CN=C(c2ccccc2)c2cc(OCC)c(OCC)cc21` [IIbi, ethyl (7,8-diethoxy-2-oxo-5-phenyl-2,3-dihydro-1H-1,4-benzodiazepin-1-yl)acetate]: 23.1%; for `COc1cc2c(cc1OC)N(C)C(=O)CN=C2c1ccncc1` [IIae, 7,8-dimethoxy-1-methyl-5-(4-pyridyl)-1,3-dihydro-2H-1,4-benzodiazepin-2-one]: 3.4%; for `CCCN1C(=O)CN=C(c2ccccc2)c2cc(OC)c(OC)cc21` [IIbe, 7,8-dimethoxy-5-phenyl-1-propyl-1,3-dihydro-2H-1,4-benzodiazepin-2-one]: 34.7%.
Take `COc1cc2c(cc1OC)N(Cc1ccccc1)C(=O)CN=C2c1ccccc1` [IIbc, 1-benzyl-7,8-dimethoxy-5-phenyl-1,3-dihydro-2H-1,4-benzodiazepin-2-one]: the “PDE4 percentage inhibition at 10 μM” value stood at 27.2%.
The same measure, in the same setting: the same measure for `COc1cc2c(cc1OC)N(C)C(=O)CN=C2C#Cc1ccccc1` [IIat, 7,8-dimethoxy-1-methyl-5-(2-phenylethynyl)-1,3-dihydro-2H-1,4-benzodiazepin-2-one]: 3.9%; for `COc1cc2c(cc1OC)N(C)C(=O)[C@H](Cc1ccccc1)N=C2c1ccccc1` [IIdj, (S)-3-benzyl-7,8-dimethoxy-1-methyl-5-phenyl-1,3-dihydro-2H-1,4-benzodiazepin-2-one]: 48.3%.
`COc1cc2c(cc1OC)N(C)C(=O)CN=C2N1CCCCC1` [IIar, 7,8-dimethoxy-1-methyl-5-(piperidin-1-yl)-1,3-dihydro-1,4-benzodiazepin-2-one]: the “PDE4 percentage inhibition at 10 μM” value amounted to 0%.
Turning to `COc1cc2c(cc1OC)N(C)C(=O)CN=C2c1ccc(C(C)=O)cc1` [IIai, 5-(4-acetylphenyl)-7,8-dimethoxy-1-methyl-1,3-dihydro-1,4-benzodiazepin-2-one], the “PDE4 percentage inhibition at 10 μM” value was determined as 39%.
Same read-out and setting: as for `COc1cc2c(cc1OC)N(C)C(=O)CN=C2c1ccc(N(C)C)cc1` [IIaj, 7,8-dimethoxy-5-(4-N,N-dimethylaminophenyl)-1-methyl-1,3-dihydro-2H-1,4-benzodiazepin-2-one], the figure is 7.9%.

Still in this experiment, the particulars now being: Table 3, formula (II); compound at 10 μM; 10 µM.
For the molecule `CCN1C(=O)C(Cc2ccc(Cl)cc2)N=C(c2ccccc2)c2cc(OC)c(OC)cc21` (stereo not drawn) [IIcn, 3-(4-chlorobenzyl)-1-ethyl-7,8-dimethoxy-5-phenyl-1,3-dihydro-2H-1,4-benzodiazepin-2-one], the “PDE4 percentage inhibition at 10 μM” value stood at 45%.
